Data as given in ChEMBL document CHEMBL1201862, “PubChem BioAssay data set” (2004).
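Dose response: 5 concentrations. Exposure: 48 h. Format: 96-well plates. Endpoint: linear interpolation; highest concentration if not reached. GI50 is the concentration that inhibits growth by half.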 Calls of active or inactive are those of the source. Rule as the data show it: active = GI50 up to about 1.1 µM and inactive = higher.

Key:
Experiment in all cases: growth of human tumour cells (NCI), 48 h
NCI-H23 = system: NCI-H23
SW-620 = system: SW-620
IGROV-1 = system: IGROV-1
Malme-3M = system: Malme-3M
NCI-H460 = system: NCI-H460
SN12C = system: SN12C
COLO 205 = system: COLO 205
U-251 = system: U-251
A498 = system: A498
SF-539 = system: SF-539
UO-31 = system: UO-31
OVCAR-8 = system: OVCAR-8
OVCAR-4 = system: OVCAR-4
M14 = system: M14
BT-549 = system: BT-549
CAKI-1 = system: CAKI-1
HL-60 = system: HL-60
MOLT-4 = system: MOLT-4
NCI/ADR-RES = system: NCI/ADR-RES
NCI-H522 = system: NCI-H522
UACC-62 = system: UACC-62
EKVX = system: EKVX
TK-10 = system: TK-10
786-0 = system: 786-0
DU-145 = system: DU-145
RPMI-8226 = system: RPMI-8226
UACC-257 = system: UACC-257
CCRF-CEM = system: CCRF-CEM
SK-MEL-28 = system: SK-MEL-28
SF-268 = system: SF-268
HOP-92 = system: HOP-92
MDA-MB-231 = system: MDA-MB-231
HOP-62 = system: HOP-62
NCI-H226 = system: NCI-H226
HCT-116 = system: HCT-116
LOX IMVI = system: LOX IMVI
HCT-15 = system: HCT-15
KM12 = system: KM12
SNB-19 = system: SNB-19
Hs-578T = system: Hs-578T
T47D = system: T47D
ACHN = system: ACHN
SNB-75 = system: SNB-75
PC-3 = system: PC-3
SK-OV-3 = system: SK-OV-3
SK-MEL-5 = system: SK-MEL-5
K562 = system: K562
MCF7 = system: MCF7
HT-29 = system: HT-29
A549 = system: A549
SR = system: SR
OVCAR-5 = system: OVCAR-5
SK-MEL-2 = system: SK-MEL-2
OVCAR-3 = system: OVCAR-3
MDA-MB-435 = system: MDA-MB-435
HCC 2998 = system: HCC 2998
RXF 393 = system: RXF 393
SF-295 = system: SF-295
MDA-N = system: MDA-N

CCCc1ccc(OCC(=O)N/N=C/c2c(-c3ccccc3)[nH]c3ccccc23)cc1
GI50 (NCI-H23): 13.6 µM (inactive)
GI50 (SW-620): 10.6 µM (inactive)
GI50 (IGROV-1): 13.1 µM (inactive)
GI50 (Malme-3M): 7.85 µM (inactive)
GI50 (NCI-H460): 4 µM (inactive)
GI50 (SN12C): 14 µM (inactive)
GI50 (COLO 205): 3.43 µM (inactive)
GI50 (U-251): 6.19 µM (inactive)
GI50 (A498): 14.4 µM (inactive)
GI50 (SF-539): 16.2 µM (inactive)
GI50 (UO-31): 24 µM (inactive)
GI50 (OVCAR-8): 9.08 µM (inactive)
GI50 (OVCAR-4): 8.32 µM (inactive)
GI50 (M14): 11.5 µM (inactive)
GI50 (BT-549): 13.8 µM (inactive)
GI50 (CAKI-1): 21.1 µM (inactive)
GI50 (HL-60): 3.96 µM (inactive)
GI50 (MOLT-4): 5.01 µM (inactive)
GI50 (NCI/ADR-RES): 6.81 µM (inactive)
GI50 (NCI-H522): 14.6 µM (inactive)
GI50 (UACC-62): 11.9 µM (inactive)
GI50 (EKVX): 12.7 µM (inactive)
GI50 (TK-10): 17.1 µM (inactive)
GI50 (786-0): 14.1 µM (inactive)
GI50 (DU-145): 21.5 µM (inactive)
GI50 (RPMI-8226): 5.48 µM (inactive)
GI50 (UACC-257): 15.4 µM (inactive)
GI50 (CCRF-CEM): 5.98 µM (inactive)
GI50 (SK-MEL-28): 20.1 µM (inactive)
GI50 (SF-268): 27.7 µM (inactive)
GI50 (HOP-92): 13.7 µM (inactive)
GI50 (MDA-MB-231): 7.06 µM (inactive)
GI50 (HOP-62): 12.9 µM (inactive)
GI50 (NCI-H226): 17.3 µM (inactive)
GI50 (HCT-116): 8.97 µM (inactive)
GI50 (LOX IMVI): 9.38 µM (inactive)
GI50 (HCT-15): 4.99 µM
GI50 (KM12): 4.91 µM (inactive)
GI50 (SNB-19): 35.8 µM (inactive)
GI50 (Hs-578T): 28.4 µM (inactive)
GI50 (T47D): 5.77 µM (inactive)
GI50 (ACHN): 13.1 µM (inactive)
GI50 (SNB-75): 19.2 µM (inactive)
GI50 (PC-3): 5.98 µM (inactive)
GI50 (SK-OV-3): 27.2 µM (inactive)
GI50 (SK-MEL-5): 8.43 µM (inactive)
GI50 (K562): 3.99 µM (inactive)
GI50 (MCF7): 4.57 µM (inactive)
GI50 (HT-29): 6.64 µM (inactive)
GI50 (A549): 8.17 µM (inactive)
GI50 (SR): 3.85 µM (inactive)
GI50 (OVCAR-5): 22.4 µM (inactive)
GI50 (SK-MEL-2): 3.23 µM (inactive)
GI50 (OVCAR-3): 24.5 µM (inactive)
GI50 (MDA-MB-435): 2.77 µM (inactive)
GI50 (HCC 2998): 4.04 µM (inactive)
GI50 (RXF 393): 11.1 µM (inactive)
GI50 (SF-295): 8.69 µM (inactive)

CSc1nc(-c2cc3c(c(SC)n2)CCC3)cc2c1CCC2
GI50 (NCI-H23): > 100 µM (inactive)
GI50 (SW-620): > 100 µM (inactive)
GI50 (NCI-H460): > 100 µM (inactive)
GI50 (SN12C): > 100 µM (inactive)
GI50 (COLO 205): > 100 µM (inactive)
GI50 (U-251): > 100 µM (inactive)
GI50 (A498): > 100 µM (inactive)
GI50 (SF-539): > 100 µM (inactive)
GI50 (UO-31): > 100 µM (inactive)
GI50 (OVCAR-8): > 100 µM (inactive)
GI50 (OVCAR-4): > 100 µM (inactive)
GI50 (M14): > 100 µM (inactive)
GI50 (BT-549): > 100 µM (inactive)
GI50 (CAKI-1): > 100 µM (inactive)
GI50 (HL-60): > 100 µM (inactive)
GI50 (MOLT-4): > 100 µM (inactive)
GI50 (NCI/ADR-RES): > 100 µM (inactive)
GI50 (NCI-H522): > 100 µM (inactive)
GI50 (UACC-62): > 100 µM (inactive)
GI50 (EKVX): > 100 µM (inactive)
GI50 (TK-10): > 100 µM (inactive)
GI50 (786-0): > 100 µM (inactive)
GI50 (DU-145): > 100 µM (inactive)
GI50 (MDA-N): > 100 µM (inactive)
GI50 (RPMI-8226): > 100 µM (inactive)
GI50 (UACC-257): > 100 µM (inactive)
GI50 (CCRF-CEM): > 100 µM (inactive)
GI50 (SK-MEL-28): > 100 µM (inactive)
GI50 (SF-268): > 100 µM (inactive)
GI50 (MDA-MB-231): > 100 µM (inactive)
GI50 (HOP-62): > 100 µM (inactive)
GI50 (NCI-H226): > 100 µM (inactive)
GI50 (HCT-116): > 100 µM (inactive)
GI50 (HCT-15): > 100 µM
GI50 (KM12): > 100 µM (inactive)
GI50 (SNB-19): > 100 µM (inactive)
GI50 (ACHN): > 100 µM (inactive)
GI50 (SNB-75): > 100 µM (inactive)
GI50 (PC-3): > 100 µM (inactive)
GI50 (SK-OV-3): > 100 µM (inactive)
GI50 (SK-MEL-5): > 100 µM (inactive)
GI50 (K562): > 100 µM (inactive)
GI50 (HT-29): > 100 µM (inactive)
GI50 (A549): > 100 µM (inactive)
GI50 (OVCAR-5): > 100 µM (inactive)
GI50 (SK-MEL-2): > 100 µM (inactive)
GI50 (OVCAR-3): > 100 µM (inactive)
GI50 (MDA-MB-435): > 100 µM (inactive)
GI50 (HCC 2998): > 100 µM (inactive)
GI50 (RXF 393): > 100 µM (inactive)
GI50 (SF-295): > 100 µM (inactive)

Clc1ccc(Cc2nc3cc4ccccc4cc3[nH]2)cc1Cl
GI50 (NCI-H23): 27.3 µM (inactive)
GI50 (SW-620): 17.4 µM (inactive)
GI50 (IGROV-1): 3.01 µM (inactive)
GI50 (Malme-3M): 16 µM (inactive)
GI50 (NCI-H460): 6.97 µM (inactive)
GI50 (SN12C): 24 µM (inactive)
GI50 (COLO 205): 18.5 µM (inactive)
GI50 (U-251): 15.5 µM (inactive)
GI50 (A498): 13.6 µM (inactive)
GI50 (SF-539): 15.5 µM (inactive)
GI50 (UO-31): 14 µM (inactive)
GI50 (OVCAR-8): 20.1 µM (inactive)
GI50 (OVCAR-4): 13 µM (inactive)
GI50 (M14): 26.2 µM (inactive)
GI50 (BT-549): 16 µM (inactive)
GI50 (CAKI-1): 18.3 µM (inactive)
GI50 (HL-60): 16.3 µM (inactive)
GI50 (MOLT-4): 2.37 µM (inactive)
GI50 (NCI/ADR-RES): 28.7 µM (inactive)
GI50 (NCI-H522): 12.7 µM (inactive)
GI50 (UACC-62): 14.2 µM (inactive)
GI50 (EKVX): 29.2 µM (inactive)
GI50 (TK-10): 19.4 µM (inactive)
GI50 (786-0): 27 µM (inactive)
GI50 (DU-145): 20.7 µM (inactive)
GI50 (RPMI-8226): 31.3 µM (inactive)
GI50 (UACC-257): 18.1 µM (inactive)
GI50 (CCRF-CEM): 37.9 µM (inactive)
GI50 (SK-MEL-28): 12.6 µM (inactive)
GI50 (SF-268): 15.9 µM (inactive)
GI50 (HOP-92): 11.7 µM (inactive)
GI50 (MDA-MB-231): 16.6 µM (inactive)
GI50 (HOP-62): 26.1 µM (inactive)
GI50 (NCI-H226): 25.2 µM (inactive)
GI50 (HCT-116): 20.1 µM (inactive)
GI50 (LOX IMVI): 14.5 µM (inactive)
GI50 (HCT-15): 15.2 µM
GI50 (KM12): 16.4 µM (inactive)
GI50 (SNB-19): 18.7 µM (inactive)
GI50 (Hs-578T): 21.3 µM (inactive)
GI50 (T47D): 12.2 µM (inactive)
GI50 (ACHN): 30.8 µM (inactive)
GI50 (SNB-75): 17.3 µM (inactive)
GI50 (PC-3): 13 µM (inactive)
GI50 (SK-MEL-5): 3.93 µM (inactive)
GI50 (K562): 6.15 µM (inactive)
GI50 (MCF7): 16.2 µM (inactive)
GI50 (HT-29): 10.2 µM (inactive)
GI50 (A549): 16.4 µM (inactive)
GI50 (SR): 7.6 µM (inactive)
GI50 (OVCAR-5): 32.5 µM (inactive)
GI50 (SK-MEL-2): 17.1 µM (inactive)
GI50 (OVCAR-3): 22.8 µM (inactive)
GI50 (MDA-MB-435): 15 µM (inactive)
GI50 (HCC 2998): 18.5 µM (inactive)
GI50 (RXF 393): 16.4 µM (inactive)
